Test system: VCAM1
Assay: TNF-induced VCAM1 expression in HUVEC (immunoblotting)
Type: cell-based, human
Settings: for TNF-induced VCAM1 expression: inhibitor at 30 μM
Description: FIG. […] VCAM-1 expression was determined by immunoblotting from 3 independent experiments. Equal protein loading was confirmed with actin antibody.
To knockdown TXNIP, HUVEC were treated with small interference RNA (siRNA) against human TXNIP coding region. The target sequences were: 5′-AAGCCGTTAGGATCCTGGCTT (SEQ ID NO: 1) for human TXNIP and 5′-AATTCTCCGAACGTGTCACGT-3′ (SEQ ID NO: 2) for control non-silencing siRNA, respectively (Qiagen-Xeragon). HUVEC at >90% confluence in 60-mm dishes were used for transfection. […] This mixture was added to HUVEC in normal culture media (2 ml) and cells were incubated for 1.5 h. The medium was changed and cells recovered for 24 h. The transfection was repeated and after 24 h, cells were used for experiments.
I.P. and I.B. experiments were performed as described previously (Surapisitchat et al., “Fluid Shear Stress Inhibits TNF-Alpha Activation of JNK but not ERK½ or p38 in Human Umbilical Vein Endothelial Cells: Inhibitory Crosstalk Among MAPK Family Members,” Proc Natl Acad Sci USA 98:6476-6481 (2001); Liu et al., “Laminar Flow Inhibits TNF-Induced ASK1 Activation by Preventing Dissociation of ASK1 From its Inhibitor 14-3-3,” J Clin Invest 107:917-923 (2001); Yamawaki et al., “Chronic Physiological Shear Stress Inhibits Tumor Necrosis Factor-Induced Proinflammatory Responses in Rabbit Aorta Perfused ex vivo,” Circulation 108:1619-1625 (2003), each of which is hereby incorporated by reference in its entirety). The resulting autoradiograms were analyzed with NIH Image 1.60. Experiments were performed at least three times and equal loading of protein was ensured by measuring actin expression.

Row | Structure (SMILES) | TNF-induced VCAM1 expression | effect on VCAM1 expression (inhibitor at 10 μM, n=4)
1 | C[S+]([O-])c1ccc(-c2nc(-c3ccncc3)c(-c3ccc(F)cc3)[nH]2)cc1 (stereo not drawn) [SB203580] | almost completely blocked | 
2 | Oc1c2ccccc2c2c3c(cccc13)N=N2 [SP600125] |  | no effect
3 | COc1cccc(-c2cc(=O)c3ccccc3o2)c1N [PD98059] | not | 

From patent publication US8999944B2, “Thioredoxin interacting protein (TXNIP) as regulator of vascular function” (University of Rochester, priority 2005, dated 2015)
